Measured values: paper PMC7308271, “Discovery of a new class of orthosteric antagonists with nanomolar potency at extrasynaptic GABAA receptors” (Scientific Reports, 2020)
Like-named read-outs stand apart in the source and are kept apart here.

Target: T1, human α1β2δ GABAΑ receptor (Homo sapiens, UniProt P14867+P47870)
T1 construct: expressed in transfected cells; host or cells: δ-HEK (HEK293 Flp-In stably expressing human δ), transiently transfected with α and β 1:1
T1 sequence (P14867 28-456): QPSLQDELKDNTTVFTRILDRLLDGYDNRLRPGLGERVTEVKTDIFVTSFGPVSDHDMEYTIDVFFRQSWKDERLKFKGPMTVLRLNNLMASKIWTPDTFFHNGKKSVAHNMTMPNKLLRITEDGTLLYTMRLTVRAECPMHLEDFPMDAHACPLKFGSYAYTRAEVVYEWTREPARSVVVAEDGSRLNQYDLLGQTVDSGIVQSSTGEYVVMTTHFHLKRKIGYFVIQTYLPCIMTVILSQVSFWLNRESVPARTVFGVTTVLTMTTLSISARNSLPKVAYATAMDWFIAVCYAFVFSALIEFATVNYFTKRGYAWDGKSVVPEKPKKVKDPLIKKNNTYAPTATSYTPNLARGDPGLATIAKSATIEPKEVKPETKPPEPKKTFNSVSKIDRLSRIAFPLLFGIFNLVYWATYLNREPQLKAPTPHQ
T1 sequence (P47870 25-512 limits assumed): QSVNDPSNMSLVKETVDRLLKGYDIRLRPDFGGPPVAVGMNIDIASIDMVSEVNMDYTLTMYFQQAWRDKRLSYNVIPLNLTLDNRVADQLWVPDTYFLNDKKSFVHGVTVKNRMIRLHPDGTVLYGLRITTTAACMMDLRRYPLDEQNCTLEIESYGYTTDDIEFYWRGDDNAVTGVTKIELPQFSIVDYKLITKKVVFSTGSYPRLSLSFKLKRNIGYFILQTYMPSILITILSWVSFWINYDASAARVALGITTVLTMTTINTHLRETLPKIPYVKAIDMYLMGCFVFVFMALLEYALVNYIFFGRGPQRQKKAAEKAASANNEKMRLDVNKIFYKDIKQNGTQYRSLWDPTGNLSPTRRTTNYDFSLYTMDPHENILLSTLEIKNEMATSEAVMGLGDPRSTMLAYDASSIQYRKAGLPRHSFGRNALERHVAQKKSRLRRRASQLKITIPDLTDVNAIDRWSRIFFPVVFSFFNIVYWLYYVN
T1 sequence (O14764 25-452 partner): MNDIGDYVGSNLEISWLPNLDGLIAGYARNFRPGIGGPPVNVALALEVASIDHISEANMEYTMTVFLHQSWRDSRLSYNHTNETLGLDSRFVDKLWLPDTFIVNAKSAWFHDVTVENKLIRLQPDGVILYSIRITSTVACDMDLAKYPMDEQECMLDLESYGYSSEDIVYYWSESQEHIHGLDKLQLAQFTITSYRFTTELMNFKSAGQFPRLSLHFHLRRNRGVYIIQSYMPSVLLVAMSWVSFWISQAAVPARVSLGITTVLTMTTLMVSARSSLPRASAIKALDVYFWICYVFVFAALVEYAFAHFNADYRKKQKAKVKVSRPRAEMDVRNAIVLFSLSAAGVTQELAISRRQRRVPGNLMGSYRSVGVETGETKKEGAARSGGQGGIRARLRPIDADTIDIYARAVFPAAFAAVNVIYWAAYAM
Assay: FMP assay at α1β2δ GABAA receptors in HEK cells
Type: cell-based
Protocol: HEK293 cells were maintained in DMEM containing GlutaMAX-I, supplemented with 10% FBS and 1% penicillin-streptomycin and incubated at 37 °C and a humidity of 5% CO2. For expression of δ-containing GABAΑ receptors, a HEK293 Flp-In^ΤΜ cell line stably expressing the human GABAΑ δ-subunits (referred to as δ-HEK) was used and the γ-containing subtypes was expressed in a background HEK293 Flp-In^ΤΜ cell line stably expressing the G-protein coupled peptide receptor NPBWR2 (referred to as HEK background)[26], both positively selected for using 200 μg/mL hygromycin B. α1β2γ2 receptors were stably expressed in a HEK293 cell line maintained as above but with no selection (gift from Marianne L. Jensen, Neurosearch).
To express recombinant GABAΑ receptors human α1, α2, α3, α5, α6, β2, γ2 (pcDNA3.1/Zeo) and α4, β1 (pUNIV)[26] subunit cDNA were transiently transfected into either δ-HEK or HEK background cells. δ-HEK cells were transfected with α- and β-subunits in a 1:1 ration whereas HEK background cells were transfected with α-, β- and γ-subunits in a 1:1:2 ratio. Human BGT1 (pcDNA5/FRT)[43] was transiently transfected into the δ-HEK cell line. δ-HEK cells transfected for whole-cell patch-clamp recordings were co-transfected with green fluorescent protein (GFP) as well as α- and β-subunits in a 0.5:1:1 ratio (0.8 μg + 1.6 μg + 1.6 μg in a 6 cm dish) in order to identify transfected cells. The transfection was carried out using Polyfect as transfection reagent according to the manufactures protocol expect for using half the recommended volume of Polyfect.
The FMP assay was performed as previously described with a few modifications. Briefly, HEK cells were transfected as described[26] and 16–20 hours later plated (50,000 cells/well in DMEM medium) into clear-bottomed black 96-well plates coated with poly-D-lysine and the assay performed 20–28 hours later. The assay protocol including the FMP blue dye incorporation into membranes was exactly as described in Falk-Petersen et al.[26]. […] Data was obtained as changes in fluorescence units (∆RFU) by measuring emission at 560 nm caused by excitation at 530 nm. Unless otherwise mentioned in the text or figure legends experiments were performed in at least three independent experiments each using three technical replicates. Due to an observed edge effect for the FMP assay, outer wells were not used except for the screening.
Data obtained in the FMP assay are given as relative changes in fluorescence units (ΔRFU) by subtracting the average of the baseline fluorescence signal from the peak fluorescence signal after compound addition. All raw traces were inspected manually and peak signals resulting from compound/buffer addition together with signal artefacts were omitted from the analysis.
The concentration-response curves obtained in the FMP assay for both agonists (determining EC50 values) and antagonists (determining IC50 values) were fitted using the four-parameter concentration-response model: Response=bottom+top−bottom/1+10^[(logEC50-A)⋅nH] EC/IC50 values describe the concentration resulting in the half-maximal response (halfway between top and bottom), and nΗ is the Hill coefficient. […] Gaddum Schild analysis was performed using GraphPad Prism version 8.2.1 (GraphPad Software Inc., San Diego, CA, USA). EC50/IC50 values obtained in the FMP assay are given as means ± SEM from at least three independent experiments with three technical replicates, as specified in the individual figure legends.

[1] = antagonist activity vs GABA EC80 10–14 μM, mean, read-out: IC50
[2] = vs GABA EC80, read-out: pIC50 ± SEM (converted)

Compound	GABA EC80 (calculated from GABA potencies, used in antagonist tests) [µM]	IC50 [1] [µM]	IC50 [2] [µM]	potency reduction of 2027 compared to 018 [times]
NCCCC(=O)O [GABA]	10 to 14			
O=C(Nc1cccc(C(=O)N2CCC3(CCNCC3)CC2)c1)c1cccs1 [compound 018, N-(3-(3,9-diazaspiro[5.5]undecane-3-carbonyl)phenyl)thiophene-2-carboxamide]		0.24	0.245	
CC(=O)Nc1cccc(C(=O)N2CCC3(CCNCC3)CC2)c1 [compound 2027, N-(3-(3,9-diazaspiro[5.5]undecane-3-carbonyl)phenyl)acetamide]		6.68	6.76	28
